How the values were obtained:
Type in all cases: in vivo
[1] = test system: kochia (Bassia scoparia); experiment: Test A preemergence, kochia; settings: Preemergence; for Plant response rating, Kochia: 0 to 100 scale (0 no effect, 100 complete control); for Kochia plant response rating: 500 g ai/ha, visual injury on 0 to 100 scale (0 no effect, 100 complete control), approximately 10 days
How it was run: (§1)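 Pots: loam soil/sand blend. Pre: directed soil spray at planting. Post: plants 2–10 cm, 1–2 leaf stage. Formulation: non-phytotoxic solvent + surfactant.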

[2] = test system: kochia (Bassia scoparia); experiment: Test A postemergence, kochia; settings: Postemergence, 0 to 100 scale (0 no effect, 100 complete control)
How it was run: as §1

[3] = test system: Ryegrass, Italian (Italian ryegrass, Lolium multiflorum); experiment: Test A postemergence, Ryegrass, Italian; settings: Postemergence, 0 to 100 scale (0 no effect, 100 complete control)
How it was run: as §1

[4] = test system: Foxtail, Giant (giant foxtail, Setaria faberi); experiment: Test A postemergence, Foxtail, Giant; settings: Postemergence, 0 to 100 scale (0 no effect, 100 complete control)
How it was run: as §1

[5] = test system: barnyardgrass (Echinochloa crus-galli); experiment: Test A postemergence, barnyardgrass; settings: Postemergence, 0 to 100 scale (0 no effect, 100 complete control)
How it was run: (§2)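 Postemergence ratings come from foliar sprays onto one- to two-leaf plants of 2 to 10 cm grown in loam/sand; preemergence ratings come from a directed spray onto the soil of newly seeded pots. Formulation was a surfactant-containing non-phytotoxic solvent blend.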

[6] = test system: barnyardgrass (Echinochloa crus-galli); experiment: Test A preemergence, barnyardgrass; settings: Preemergence; for Plant response rating, Barnyardgrass: 0 to 100 scale (0 no effect, 100 complete control); for Barnyardgrass plant response rating: 500 g ai/ha, visual injury on 0 to 100 scale (0 no effect, 100 complete control), approximately 10 days
How it was run: as §1

[7] = test system: blackgrass (Alopecurus myosuroides); experiment: Test A postemergence, blackgrass; settings: Postemergence, 0 to 100 scale (0 no effect, 100 complete control)
How it was run: as §1

[8] = test system: Foxtail, Giant (giant foxtail, Setaria faberi); experiment: Test A preemergence, Foxtail, Giant; settings: Preemergence; for Plant response rating, Foxtail, Giant: 0 to 100 scale (0 no effect, 100 complete control); for Foxtail, Giant plant response rating: 500 g ai/ha, visual injury on 0 to 100 scale (0 no effect, 100 complete control), approximately 10 days
How it was run: as §1

[9] = test system: corn (Zea mays); experiment: Test A postemergence, corn; settings: Postemergence, 0 to 100 scale (0 no effect, 100 complete control)
How it was run: as §1

[10] = test system: galium (catchweed bedstraw, Galium aparine); experiment: Test A postemergence, galium; settings: Postemergence, 0 to 100 scale (0 no effect, 100 complete control)
How it was run: as §2

[11] = test system: Ryegrass, Italian (Italian ryegrass, Lolium multiflorum); experiment: Test A preemergence, Ryegrass, Italian; settings: Preemergence; for Plant response rating, Ryegrass, Italian: 0 to 100 scale (0 no effect, 100 complete control); for Ryegrass, Italian plant response rating: 500 g ai/ha, visual injury on 0 to 100 scale (0 no effect, 100 complete control), approximately 10 days
How it was run: as §1

[12] = test system: pigweed (Amaranthus retroflexus); experiment: Test A postemergence, pigweed; settings: Postemergence, 0 to 100 scale (0 no effect, 100 complete control)
How it was run: as §1

[13] = test system: wheat (Triticum aestivum); experiment: Test A postemergence, wheat; settings: Postemergence, 0 to 100 scale (0 no effect, 100 complete control)
How it was run: as §2

[14] = test system: ragweed (common ragweed, Ambrosia artemisiifolia); experiment: Test A preemergence, ragweed; settings: Preemergence; for Plant response rating, Ragweed: 0 to 100 scale (0 no effect, 100 complete control); for Ragweed plant response rating: 500 g ai/ha, visual injury on 0 to 100 scale (0 no effect, 100 complete control), approximately 10 days
How it was run: as §1

[15] = test system: ragweed (common ragweed, Ambrosia artemisiifolia); experiment: Test A postemergence, ragweed; settings: Postemergence, 0 to 100 scale (0 no effect, 100 complete control)
How it was run: as §1

[16] = test system: pigweed (Amaranthus retroflexus); experiment: Test A preemergence, pigweed; settings: for Plant response rating, Pigweed: 0 to 100 scale (0 no effect, 100 complete control); for Pigweed plant response rating: 500 g ai/ha, visual injury on 0 to 100 scale (0 no effect, 100 complete control), approximately 10 days
How it was run: as §2

[17] = 1000 g ai/ha, visual injury, approx. 10 days
[18] = 125 g ai/ha, visual injury, approx. 10 days
[19] = 500 g ai/ha, visual injury approx. 10 days

Row | SMILES | Plant response rating, Kochia [1, 18] | Kochia plant response rating [1] | Plant response rating, Kochia ([2]; 125 g ai/ha) | Plant response rating, Kochia [2, 19] | Plant response rating, Ryegrass, Italian ([3]; 125 g ai/ha) | Plant response rating, Ryegrass, Italian [3, 19] | Plant response rating, Foxtail, Giant ([4]; 125 g ai/ha) | Plant response rating, Foxtail, Giant [4, 19] | Plant response rating, Barnyardgrass ([5]; 125 g ai/ha) | Plant response rating, Barnyardgrass [5, 19] | Plant response rating, Barnyardgrass [6, 18] | Barnyardgrass plant response rating [6] | Plant response rating, Blackgrass ([7]; 125 g ai/ha) | Plant response rating, Blackgrass [7, 19] | Plant response rating, Foxtail, Giant [8, 18] | Foxtail, Giant plant response rating [8] | Plant response rating, Corn ([9]; 125 g ai/ha) | Plant response rating, Corn [9, 19] | Plant response rating, Galium ([10]; 125 g ai/ha) | Plant response rating, Galium [10, 19] | further results
1 | Cc1cc(C)c(C(=O)N2CCC(C)CC2)cc1NS(=O)(=O)C(F)(F)F [Compound 264] | – | – | – | – | – | – | – | – | – | – | – | – | – | – | – | – | – | – | – | – | Plant response rating, Kochia ([1]; 1000 g ai/ha): 70; Plant response rating, Kochia [2, 17]: 20; Plant response rating, Ryegrass, Italian [3, 17]: 50; Plant response rating, Foxtail, Giant [4, 17]: 40; Plant response rating, Barnyardgrass [5, 17]: 50; Plant response rating, Barnyardgrass ([6]; 1000 g ai/ha): 100; Plant response rating, Blackgrass [7, 17]: 60; Plant response rating, Foxtail, Giant ([8]; 1000 g ai/ha): 100; Plant response rating, Corn [9, 17]: 20; Plant response rating, Galium [10, 17]: 70; Plant response rating, Ryegrass, Italian ([11]; 1000 g ai/ha): 100; Plant response rating, Pigweed [12, 17]: 60; Plant response rating, Wheat [13, 17]: 70; Plant response rating, Ragweed ([14]; 1000 g ai/ha): 90; Plant response rating, Ragweed [15, 17]: 60; Plant response rating, Pigweed ([16]; 1000 g ai/ha): 80
2 | Cc1cc(C)c(N2CCC3(CCCC3)C2=O)cc1NS(=O)(=O)C(F)(F)F [Compound 270] | 0 | 0 | 10 | 50 | 0 | 70 | 0 | 20 | 0 | 70 | 90 | 90 | 20 | 70 | 100 | 100 | 0 | 50 | 80 | 90 | Plant response rating, Ryegrass, Italian [11, 18]: 100; Ryegrass, Italian plant response rating [11]: 100; Plant response rating, Pigweed ([12]; 125 g ai/ha): 60; Plant response rating, Pigweed [12, 19]: 90; Plant response rating, Wheat ([13]; 125 g ai/ha): 40; Plant response rating, Wheat [13, 19]: 70; Plant response rating, Ragweed [14, 18]: 0; Ragweed plant response rating [14]: 80; Plant response rating, Ragweed ([15]; 125 g ai/ha): 30; Plant response rating, Ragweed [15, 19]: 60; Plant response rating, Pigweed [16, 18]: 70; Pigweed plant response rating [16]: 100
3 | Cc1cc(C)c(N(S(=O)(=O)C(F)(F)F)S(=O)(=O)C(F)(F)F)cc1C(=O)N1CCCOCC1 [Compound 276] | 0 | 0 | 20 | 60 | 0 | 10 | 10 | 90 | 60 | 90 | 70 | 100 | 0 | 0 | 100 | 100 | 0 | 20 | 80 | 90 | Plant response rating, Ryegrass, Italian [11, 18]: 30; Ryegrass, Italian plant response rating [11]: 80; Plant response rating, Pigweed ([12]; 125 g ai/ha): 60; Plant response rating, Pigweed [12, 19]: 80; Plant response rating, Wheat ([13]; 125 g ai/ha): 0; Plant response rating, Wheat [13, 19]: 20; Plant response rating, Ragweed [14, 18]: 40; Ragweed plant response rating [14]: 70; Plant response rating, Ragweed ([15]; 125 g ai/ha): 50; Plant response rating, Ragweed [15, 19]: 80; Plant response rating, Pigweed [16, 18]: 80; Pigweed plant response rating [16]: 100
